Like-named read-outs stand apart in the source and are kept apart here.
How the values were obtained:
CYP2D6 = target: T1, CYP2D6 (Homo sapiens, UniProt P10635); test: CYP inhibition assay, human liver microsomes, CYP2D6; format: in vitro ADME
T1 construct: human liver microsomes (0.4 mg/ml); from tissue; host or cells: human liver microsomes
Protocol: (§1) The test article was dissolved in methanol at a concentration of 5 mM. Dilutions of the stock solution were also prepared in methanol. The substrate concentration was kept near the Km value for each CYP reaction. The substrates were 100 μM phenacetin (O-deethylase reaction) for CYP1A2, 16 μM dextromethorphan (O-demethylase reaction) for CYP2D6, 100 μM testosterone (6β-hydroxylase reaction) and 5 μM midazolam (1′-hydroxylase reaction) for CYP3A4, 200 μM tolbutamide (4-hydroxylase reaction) for CYP2C9, 125 μM S-(+)-mephenyloin (4-hydroxylase reaction) for CYP2C19 and 5 μM paclitaxel (6[…]-hydroxylase reaction) for CYP2C8. The reactions were terminated by the addition of 35% perchloric acid to a final concentration of 4.5% (vol:vol). The concentrations of the metabolites formed from each substrate after incubation were determined by LC-MS/MS using a standard curve.
(§2) To evaluate metabolism/mechanism-based inhibition, the test article, at the stated concentrations (0 to 50 μM), was pre-incubated with human liver microsomes for 30 min at 37° C. in the presence of NADPH and in the absence of the substrates. After the pre-incubation step, the CYP substrates were added at the previously stated concentrations and the reactions were allowed to proceed as indicated in the previous paragraph.

CYP2C9 = target: T2, CYP2C9 (Homo sapiens, UniProt P11712); test: CYP inhibition assay, human liver microsomes, CYP2C9; format: in vitro ADME
T2 construct: human liver microsomes (0.4 mg/ml); from tissue; host or cells: human liver microsomes
Protocol: as §1, §2

hERG = target: T3, hERG (Homo sapiens, UniProt Q12809); test: hERG rubidium efflux in hERG-CHO cells; format: cell-based; settings: CHO cells that express hERG (hERG-CHO); for inhibition at 30 min, 1.5 uG/mL: pH 7.4, 1.5 uG/mL, read-out: HERG Rb efflux % Inhib 1.5 uG/mL; for inhibition at 30 min, 5 uG/mL: pH 7.4, 5 uG/mL, read-out: HERG Rb efflux % Inhib 5 uG/mL
T3 construct: expressed in transfected cells; host or cells: CHO cells (hERG-CHO)
Protocol: The base solution for the rubidium efflux studies was 144 mM NaCl, 20 mM HEPES-NaOH (pH 7.4), 2 mM CaCl2, 1 mM MgCl2, and 11 mM glucose. To prepare the rubidium loading buffer 5.4 mM RbCl was added. The wash buffer was supplemented with 5.4 mM KCl. The depolarization buffer was prepared by adding 40 mM KCl to the wash buffer. Drugs were added as 4× stocks containing 10% DMSO with a resulting final DMSO concentration of 2.5%.
hERG-CHO cells were plated into 96-well flat-bottom dishes and returned to the incubator for 24 hours. On the day of study, culture medium was removed and replaced by a HEPES-buffered saline solution containing 5.4 mM RbCl. Cells were returned to the tissue culture incubator for 3 hours to permit rubidium loading. […] Plates were then washed 3× with HEPES buffered saline containing 5.4 mM KCl and zero rubidium. After the 3rd wash cells were depolarized by the addition of 200 μl HEPES buffered saline containing 45.4 mM KCl. Cells were incubated in the depolarization solution for 5 minutes to permit efflux of rubidium. Supernatants were then collected and analyzed for rubidium content using automated flame atomic absorbance spectroscopy (ICR-8000, Aurora Biosciences). Percent inhibition was quantified based on a signal window defined by no block (vehicle) and full block with 10 μM dofetilide. All pipetting steps for the rubidium efflux screen were implemented using a pipetting robot capable of making simultaneous additions and removals from 96 wells (Quadra-96).

[1] = target: T4, soluble human BACE1 catalytic domain (Homo sapiens, UniProt P56817); test: BACE1 HTRF FRET assay; format: biochemical; settings: calculated from IC50 by Cheng-Prusoff; QSY7-APPswe-Eu substrate, pH 5.0
T4 construct: purified human BACE1 catalytic domain

BACE1 = target: T5, BACE1 (Homo sapiens, UniProt P56817); test: BACE inhibitor whole cell IC50 determination using HEK293-APPswe/lon cells (Aβ40); format: cell-based; settings: 4 hours, Aβ40 in media, read-out: BACE1 A[…]40 IC50
T5 construct: endogenous in cells; host or cells: HEK293 stably transfected with human APP cDNA (Swedish and London mutations)

human liver Cathepsin D = target: T6, human liver Cathepsin D (Homo sapiens, UniProt P07339); test: Human Cathepsin D FRET assay; format: biochemical; settings: selectivity with respect to Cathepsin D versus BACE1
T6 construct: Purified (>95%) human liver Cathepsin D; purchased Athens Research & Technology 16-12-030104; host or cells: human liver (tissue-derived)

CYP3A4 = target: T7, CYP3A4 (Homo sapiens, UniProt P08684); test: CYP inhibition assay, human liver microsomes, CYP3A4; format: in vitro ADME
T7 construct: human liver microsomes (0.4 mg/ml); from tissue; host or cells: human liver microsomes

[2] = 30 min pre-incubation with NADPH, read-out: CYP 2D6 IC50 pre
[3] = co-incubation, dextromethorphan substrate, read-out: CYP 2D6 IC50 co
[4] = 30 min pre-incubation with NADPH, read-out: CYP 2C9 IC50 pre
[5] = co-incubation, tolbutamide substrate, read-out: CYP 2C9 IC50 co
[6] = 30 min pre-incubation with NADPH, read-out: CYP 3A4 IC50 pre
[7] = co-incubation, read-out: CYP 3A4 IC50 co

T5 sequence (P56817 46-501): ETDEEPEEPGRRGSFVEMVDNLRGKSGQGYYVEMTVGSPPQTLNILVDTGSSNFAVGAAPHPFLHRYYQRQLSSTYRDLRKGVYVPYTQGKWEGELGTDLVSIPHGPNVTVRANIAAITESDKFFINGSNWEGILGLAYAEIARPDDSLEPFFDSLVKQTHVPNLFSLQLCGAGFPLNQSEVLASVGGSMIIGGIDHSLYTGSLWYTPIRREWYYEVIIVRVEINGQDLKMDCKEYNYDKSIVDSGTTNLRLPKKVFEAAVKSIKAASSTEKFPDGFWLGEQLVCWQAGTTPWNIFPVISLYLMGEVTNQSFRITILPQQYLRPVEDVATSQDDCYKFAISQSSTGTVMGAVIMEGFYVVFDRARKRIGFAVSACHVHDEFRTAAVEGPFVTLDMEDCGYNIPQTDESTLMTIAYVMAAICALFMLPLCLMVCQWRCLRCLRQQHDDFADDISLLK
T4 sequence (P56817 75-416 limits assumed): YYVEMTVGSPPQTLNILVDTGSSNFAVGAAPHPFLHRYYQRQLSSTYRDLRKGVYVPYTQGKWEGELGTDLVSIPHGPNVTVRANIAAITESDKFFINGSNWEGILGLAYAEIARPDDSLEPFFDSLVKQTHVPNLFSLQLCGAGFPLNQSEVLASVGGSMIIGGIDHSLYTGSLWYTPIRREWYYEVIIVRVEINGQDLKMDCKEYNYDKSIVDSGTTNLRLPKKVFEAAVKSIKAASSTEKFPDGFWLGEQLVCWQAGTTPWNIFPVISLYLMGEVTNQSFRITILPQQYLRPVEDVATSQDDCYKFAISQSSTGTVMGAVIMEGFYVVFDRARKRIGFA
T7 sequence (P08684 whole entry): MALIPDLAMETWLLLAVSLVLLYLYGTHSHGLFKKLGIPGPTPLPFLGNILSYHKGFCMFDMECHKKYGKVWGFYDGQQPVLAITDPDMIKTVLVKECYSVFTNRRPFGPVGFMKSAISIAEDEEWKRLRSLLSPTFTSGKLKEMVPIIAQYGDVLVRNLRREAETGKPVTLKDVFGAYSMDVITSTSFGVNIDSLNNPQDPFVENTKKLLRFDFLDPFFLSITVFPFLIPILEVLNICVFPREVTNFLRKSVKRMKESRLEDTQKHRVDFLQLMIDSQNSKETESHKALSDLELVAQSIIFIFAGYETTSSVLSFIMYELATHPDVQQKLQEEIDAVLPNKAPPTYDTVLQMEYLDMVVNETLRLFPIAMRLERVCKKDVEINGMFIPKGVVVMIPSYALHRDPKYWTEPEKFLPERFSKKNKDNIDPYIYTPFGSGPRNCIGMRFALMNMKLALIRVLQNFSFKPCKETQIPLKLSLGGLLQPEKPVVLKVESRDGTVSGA
T2 sequence (P11712 whole entry): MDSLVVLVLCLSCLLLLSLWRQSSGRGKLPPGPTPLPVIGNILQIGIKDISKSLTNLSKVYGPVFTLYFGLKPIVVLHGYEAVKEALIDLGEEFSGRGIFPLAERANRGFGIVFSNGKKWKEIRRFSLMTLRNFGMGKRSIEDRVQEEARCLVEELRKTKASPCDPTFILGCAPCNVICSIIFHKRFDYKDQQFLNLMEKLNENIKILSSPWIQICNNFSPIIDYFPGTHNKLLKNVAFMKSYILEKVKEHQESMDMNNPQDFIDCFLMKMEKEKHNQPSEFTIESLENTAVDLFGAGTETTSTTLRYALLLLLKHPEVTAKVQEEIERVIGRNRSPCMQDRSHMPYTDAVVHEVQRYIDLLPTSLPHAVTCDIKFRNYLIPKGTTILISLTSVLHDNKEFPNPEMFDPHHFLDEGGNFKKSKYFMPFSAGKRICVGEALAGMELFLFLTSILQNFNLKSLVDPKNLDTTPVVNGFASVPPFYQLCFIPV
T6 sequence (P07339 169-412 limits assumed): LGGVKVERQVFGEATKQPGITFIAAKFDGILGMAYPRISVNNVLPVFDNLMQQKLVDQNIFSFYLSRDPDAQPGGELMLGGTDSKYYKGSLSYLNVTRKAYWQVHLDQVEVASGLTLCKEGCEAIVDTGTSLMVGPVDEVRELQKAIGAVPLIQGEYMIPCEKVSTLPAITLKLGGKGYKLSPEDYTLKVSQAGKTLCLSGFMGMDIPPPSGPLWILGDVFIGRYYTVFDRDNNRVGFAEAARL
T6 sequence (P07339 65-161 limits assumed): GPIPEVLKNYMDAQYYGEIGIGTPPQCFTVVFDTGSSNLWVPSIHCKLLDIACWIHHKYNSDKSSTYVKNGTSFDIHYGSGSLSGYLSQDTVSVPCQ
T1 sequence (P10635 whole entry): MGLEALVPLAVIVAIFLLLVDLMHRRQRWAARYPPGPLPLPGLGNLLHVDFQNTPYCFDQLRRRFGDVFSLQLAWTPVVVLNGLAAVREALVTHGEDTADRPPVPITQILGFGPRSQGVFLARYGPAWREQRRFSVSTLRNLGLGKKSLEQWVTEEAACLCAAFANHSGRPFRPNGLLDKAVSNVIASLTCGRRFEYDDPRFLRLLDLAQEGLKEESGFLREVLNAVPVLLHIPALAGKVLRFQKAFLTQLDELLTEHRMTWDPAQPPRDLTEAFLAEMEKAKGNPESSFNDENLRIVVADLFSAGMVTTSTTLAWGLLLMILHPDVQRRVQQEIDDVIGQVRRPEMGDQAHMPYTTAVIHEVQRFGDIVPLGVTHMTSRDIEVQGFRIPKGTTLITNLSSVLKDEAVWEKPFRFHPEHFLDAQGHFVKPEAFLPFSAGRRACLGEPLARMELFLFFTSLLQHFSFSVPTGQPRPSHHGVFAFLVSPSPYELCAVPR
T3 sequence (Q12809 whole entry): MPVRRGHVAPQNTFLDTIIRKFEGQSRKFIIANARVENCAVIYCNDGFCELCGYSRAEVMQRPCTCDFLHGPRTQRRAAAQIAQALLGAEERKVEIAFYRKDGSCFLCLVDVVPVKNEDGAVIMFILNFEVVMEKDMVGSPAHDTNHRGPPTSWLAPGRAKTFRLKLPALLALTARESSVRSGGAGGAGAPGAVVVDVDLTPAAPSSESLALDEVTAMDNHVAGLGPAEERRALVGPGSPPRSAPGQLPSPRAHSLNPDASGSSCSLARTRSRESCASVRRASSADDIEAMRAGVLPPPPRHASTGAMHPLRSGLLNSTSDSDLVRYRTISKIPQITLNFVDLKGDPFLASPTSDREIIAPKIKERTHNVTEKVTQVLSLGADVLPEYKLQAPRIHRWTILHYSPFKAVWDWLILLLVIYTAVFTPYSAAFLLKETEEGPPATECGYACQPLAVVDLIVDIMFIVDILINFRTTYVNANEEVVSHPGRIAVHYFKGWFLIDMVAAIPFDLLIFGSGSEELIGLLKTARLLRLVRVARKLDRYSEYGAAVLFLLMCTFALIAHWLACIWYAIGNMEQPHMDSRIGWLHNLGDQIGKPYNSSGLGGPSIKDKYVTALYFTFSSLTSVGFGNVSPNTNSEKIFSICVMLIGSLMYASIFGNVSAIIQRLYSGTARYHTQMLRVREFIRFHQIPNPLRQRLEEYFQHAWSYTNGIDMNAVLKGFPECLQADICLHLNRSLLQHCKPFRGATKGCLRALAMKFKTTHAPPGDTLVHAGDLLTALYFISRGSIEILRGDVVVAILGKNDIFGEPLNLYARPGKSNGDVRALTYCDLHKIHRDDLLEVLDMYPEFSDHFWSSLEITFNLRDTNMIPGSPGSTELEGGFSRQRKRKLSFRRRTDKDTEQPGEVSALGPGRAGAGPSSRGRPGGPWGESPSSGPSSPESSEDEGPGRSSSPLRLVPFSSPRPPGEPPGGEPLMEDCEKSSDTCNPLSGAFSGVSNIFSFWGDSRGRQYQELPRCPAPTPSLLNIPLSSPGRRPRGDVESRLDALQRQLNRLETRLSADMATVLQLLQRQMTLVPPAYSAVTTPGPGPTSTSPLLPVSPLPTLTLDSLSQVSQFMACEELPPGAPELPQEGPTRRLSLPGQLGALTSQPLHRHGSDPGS

Compound	IC50 (CYP2D6; [2]) [µM]	IC50 (CYP2D6; [3]) [µM]	IC50 (CYP2C9; [4]) [µM]	IC50 (CYP2C9; [5]) [µM]	inhibition at 30 min, 1.5 uG/mL (hERG) [%]	inhibition at 30 min, 5 uG/mL (hERG) [%]	Ki [1] [µM]	IC50 (BACE1) [µM]	CathD Selectivity (human liver Cathepsin D)	IC50 (CYP3A4; [6]) [µM]	IC50 (CYP3A4; [7]) [µM]
COc1nc(N2C[C@H]3C(=O)N(C)C(=N)N[C@@]3(c3ccc(Cl)s3)C2)nc(C)c1F [Example 2]	> 30	> 30	22.8	20.3	4	22	–	–	–	–	–
Cc1nc(N2C[C@H]3C(=O)N(C)C(=N)N[C@@]3(c3ccc(Cl)s3)C2)nc(C2CC2)c1Cl [Example 20]	–	–	–	–	-1	34	0.0096	0.215	62	–	–
[H]/N=C1\N[C@@]2(c3ccc(C#N)s3)CN(c3nc(C)c(F)c(OC)n3)C[C@H]2C(=O)N1C [Example 1]	> 30	> 30	> 30	23.4	1	10	–	–	–	–	–
CCc1nc(N2C[C@H]3C(=O)N(C)C(=N)N[C@@]3(c3ccc(Cl)s3)C2)nc(OC)c1F [Example 4]	19	22	5.5	7.9	17	49	–	–	–	~30	> 30
Cc1nc(N2C[C@H]3C(=O)N(C)C(=N)N[C@@]3(c3ccc(Cl)s3)C2)nc(C)c1F [Example 14]	> 30	> 30	> 30	> 30	14	6	0.047	–	–	> 30	> 30
Cc1nc(N2C[C@H]3C(=O)N(C)C(=N)N[C@@]3(c3cc(C#N)cs3)C2)nc(C2CC2)c1F [Example 8]	> 30	> 30	> 30	> 30	–	–	0.031	0.21	82	> 30	> 30
Cc1nc(N2C[C@H]3C(=O)N(C)C(=N)N[C@@]3(c3ccc(C#N)s3)C2)nc(C2CC2)c1F [Example 9]	–	–	–	–	–	–	0.049	0.315	–	–	–
Cc1nc(N2C[C@H]3C(=O)N(C)C(=N)N[C@@]3(c3ccc(C#N)s3)C2)nc(C)c1F [Example 19]	> 30	> 30	> 30	> 30	-5	3	0.052	0.141	47	~30	> 30

From patent US8450331B2, “Thiophenyl-substituted 2-imino-3-methyl pyrrolo pyrimidinone compounds as BACE-1 inhibitors, compositions, and their use” (Merck Sharp & Dohme Corp., priority 2008, dated 2013)
